Experimental data taken from a flash point compilation (Sun et al. 2020).
Where a name gives a salt, the structure may show the parent alone.

Tests used:
[1] = not given; remark: listed apart in the source
[2] = not given; remark: listed apart in the source
[3] = not given; remark: listed apart in the source

Structure (SMILES)	flash point	flash point [1]	also measured
CCCCC(C)OC(C)=O (stereo not drawn) [sec-Hexyl acetate]	45.00 °C		
Cc1cccc([N+](=O)[O-])c1 [m-Nitrotoluene]	106.00 °C		
NCCNCCNCCNCCN [Tetraethylenepentamine]	163.00 °C		
COCCOC(C)=O [2-methoxyethylacetate]		45 °C	flash point [2]: 43 °C
NCC(O)c1ccccc1 (stereo not drawn) [Phenylethanolamine]	152.00 °C		
CCCBr [1-bromopropane]		21 °C	flash point [3]: 26.00 °C
CCCc1ccccc1 [Propyl benzene]	30.00 °C		
CC=CC=CC=O [2,4-Hexadienal]	68.00 °C		
CCCCOC(=O)C(=O)OCCCC [Dibutyl oxalate]	104.00 °C		
CCCCCCCN [n-Heptylamine]	54.00 °C		
CC(C)CC(=O)O [3-methylbutanoic acid]		74 °C	flash point [3]: 70.00 °C
C1=CCC=CC1 [1,4-cyclohexadiene]		-6 °C	flash point [2]: -11 °C
Clc1cccc2ccccc12 [Chloronaphthalene]	132.00 °C		
C#CCCCCCCCC [1-decyne]		50 °C	flash point [2]: 48 °C
CCC(Cl)[N+](=O)[O-] (stereo not drawn) [1-Chloro-1-nitropropane]	62.00 °C		
Nc1cccc2ccccc12 [1-Naphthylamine]	157.00 °C		
Oc1ccccc1 [Phenol]	79.00 °C		
C=C(C)C(=O)OCCCC [Butyl methacrylate]	52.00 °C		
CCCCCCCCCCCCC [tridecane]		102 °C	flash point [2]: 94 °C; flash point [3]: 79.00 °C
c1ccsc1 [Thiophene]	-1.00 °C		
CCOCCO [2-ethoxyethanol]		44 °C	flash point [3]: 41.00 °C
Oc1ccccc1Cl [o-Chlorophenol]	64.00 °C		
CCCCC(CC)CO (stereo not drawn) [2-Ethyl hexanol]	84.00 °C		
CCCCC=O [pentanal]		8 °C	flash point [3]: 12.00 °C

Structure (SMILES)	flash point	flash point [1]	also measured
CCCC(C)OC(C)=O (stereo not drawn) [sec-Amyl acetate]	32.00 °C		
CC1=CCCCC1 [1-methylcyclohexene]		-3 °C	flash point [2]: -1 °C
O=C(Cl)c1ccccc1 [Benzoyl chloride]	72.00 °C		
C=CCl [Vinyl chloride]	-78.00 °C		
Cc1ccncc1 [4-Picoline]	57.00 °C		
CC(C)=CC(=O)C=C(C)C [Phorone]	85.00 °C		
CCCC(C)=O [Methyl-n-Propyl ketone]	7.00 °C		
NC=O [Formamide]	155.00 °C		
OCCS [2-Mercaptoethanol]	74.00 °C		
CCOC(=O)CC(C)=O [Ethyl acetoacetate]	84.00 °C		
Cc1cccc(C)c1 [m-Xylene]	29.00 °C		
CC(C)CCO[N+](=O)[O-] [iso-Amyl nitrate]	52.00 °C		
CC(=O)OCC(C)C [iso-Butyl acetate]	18.00 °C		
COC(=O)C(C)C [Methyl isobutyrate]	13.00 °C		
NCCNCCN [diethylenetriamine]		97 °C	flash point [2]: 90 °C
COC(C)COC(C)CO (stereo not drawn) [Dipropylene glycol methyl ether]	85.00 °C		
CC(C)=CC=C(C)C [2,5-dimethyl-2,4-hexadiene]		29 °C	flash point [2]: 24 °C
c1ccc(P(c2ccccc2)c2ccccc2)cc1 [Triphenyl phosphine]	180.00 °C		
c1ccc2ccccc2c1 [Naphthalene]	79.00 °C		
CCCCCC(=O)CC [Ethyl amyl ketone]	57.00 °C		
CC(CCO)CC(C)(C)C (stereo not drawn) [3,5,5-trimethyl-1-hexanol]		79 °C	flash point [2]: 80 °C
C1CCC(NC2CCCCC2)CC1 [Dicyclohexylamine]	99.00 °C		
Cc1ccccc1N [o-Toluidine]	85.00 °C		
C#CCCCCCC#C [1,8-nonadiyne]		41 °C	flash point [2]: 42 °C

Structure (SMILES)	flash point	flash point [1]	also measured
C=CCCCCCCCCCC [1-dodecene]		77 °C	flash point [2]: 73 °C
C1=CCCC=CCC1 [1,5-cyclooctadiene]		32 °C	flash point [2]: 35 °C
CCCCBr [1-bromobutane]		13 °C	flash point [3]: 18.00 °C
O=P(Oc1ccccc1)(Oc1ccccc1)Oc1ccccc1 [Triphenyl phosphate]	220.00 °C		
C=CC(=O)O [Acrylic acid]	52.00 °C		
COC(=O)OC [dimethyl carbonate]		18 °C	flash point [3]: -1.00 °C
CC#CCCC [2-hexyne]		-11 °C	flash point [2]: -10 °C
C=C1CCCC1 [methylenecyclopentane]		-19 °C	flash point [2]: -18 °C
CCBr [bromoethane]		-20 °C	flash point [3]: -23.00 °C
C1CCCCCCCCC1 [cyclodecane]		65 °C	flash point [2]: 59 °C
CC1=CCCC1 [1-methylcyclopentene]		-17 °C	flash point [2]: -19 °C
CC(=O)OC(C)(C)C [tert-butyl acetate]		15 °C	flash point [3]: 22.00 °C
CC(C)CCl [1-chloro-2-methylpropane]		21 °C	flash point [3]: -10.00 °C
C1COCCN1 [morpholine]		35 °C	flash point [3]: 38.00 °C
ClC1CCCCC1 [chlorocyclohexane]		32 °C	flash point [2]: 28 °C
CCOC(=O)CCCC(=O)OCC [diethyl glutarate]		96 °C	
SC1CCCC1 [cyclopentanethiol]		25 °C	
CC1CCC(O)CC1 (stereo not drawn) [4-methylcyclohexanol]		70 °C	
CCCOC(C)=O [n-propyl acetate]		10 °C	
CC(C)(C)S [2-methyl-2-propanethiol]		-26 °C	flash point [2]: -24 °C
c1cc[nH]c1 [pyrrole]		33 °C	
CC(C)(C)CO [2,2-dimethyl-1-propanol]		36 °C	
Cc1cccc(C)c1O [2,6-dimethylphenol]		73 °C	
CCN(CC)CC [triethylamine]		-17 °C	

Structure (SMILES)	flash point	flash point [1]	also measured
CCCCCC(C)CCC (stereo not drawn) [4-methylnonane]		38 °C	
CCCC(CC)CC [3-ethylhexane]		6 °C	
CCCS [1-propanethiol]		-21 °C	
OCC(Cl)CCl (stereo not drawn) [2,3-dichloro-1-propanol]		93 °C	
SC1CCCCC1 [cyclohexanethiol]		43 °C	
CCCCCCCCCO [1-nonanol]		98 °C	
CC(C)(C)ON=O [t-butyl nitrite]		-23 °C	
Brc1ccc(-c2ccccc2)cc1 [4-bromobiphenyl]		144 °C	
CCCCCCCCCCN [1-decanamine]		86 °C	
CC(=O)CCC(C)=O [2,5-hexanedione]		79 °C	
CC1CCCC1 [methylcyclopentane]		-29 °C	flash point [2]: -23 °C; flash point [3]: -24.00 °C
NCCN [1,2-ethanediamine]		34 °C	
CCCCCCCCC=O [n-nonanal]		71 °C	
CC(O)CN (stereo not drawn) [1-amino-2-propanol]		77 °C	
N#CC1CC1 [cyclopropanecarbonitrile]		32 °C	
CCCC(=O)OC [methyl butyrate]		11 °C	
CCOC(=O)c1ccccc1C(=O)OCC [diethyl phthalate]		160 °C	
CC(C)Br [2-bromopropane]		1 °C	
CCC(C)C(C)O (stereo not drawn) [3-methyl-2-pentanol]		40 °C	
CC(C)(C)OOC(C)(C)C [di-tert-butyl peroxide]		12 °C	
CC(C)COC(=O)C(C)C [isobutyl isobutyrate]		40 °C	
CCC(CC)C(=O)O [2-ethylbutyric acid]		87 °C	
CC(=O)C(C)=O [2,3-butanedione]		6 °C	
CCCCNC [N-methylbutylamine]		1 °C	

Structure (SMILES)	flash point	flash point [1]	also measured
O=C1OCCO1 [ethylene carbonate]		150 °C	
Cc1ccncc1 [4-picoline]		40 °C	
CCCCl [1-chloropropane]		-31 °C	flash point [3]: -18.00 °C
O=C1CCC1 [cyclobutanone]		10 °C	
COC(=O)C1CC1 [methyl cyclopropanecarboxylate]		17 °C	
c1ccc2c(c1)CCCC2 [1,2,3,4-tetrahydronaphthalene]		77 °C	
C=CCCO [3-buten-1-ol]		33 °C	
CCCCI [1-iodobutane]		33 °C	
CSC(C)(C)C [t-butyl methyl sulfide]		-3 °C	
CCc1ccccc1CC [o-diethyl benzene]		49 °C	
C=CC(C)=CC [3-methyl-1,3-pentadiene]		-28 °C	
CCC(C)c1ccccc1 (stereo not drawn) [sec-butylbenzene]		45 °C	
CCC(=O)OC [methyl propionate]		6 °C	
CCc1ccc(O)cc1 [4-ethylphenol]		104 °C	
CCC(C)CS (stereo not drawn) [2-methyl-1-butanethiol]		19 °C	
C=C(C)CCl [3-chloro-2-methyl-1-propene]		-12 °C	
CCCC(=O)c1ccccc1 [1-phenyl-1-butanone]		88 °C	
CCC(=O)O [propionic acid]		51 °C	
CCCCSCCCC [dibutyl sulfide]		60 °C	
COCCOCCOC [diethylene glycol dimethyl ether]		51 °C	
Cc1ccc(O)c(C)c1 [2,4-dimethylphenol]		94 °C	
